≈ marks a conversion by molar mass, not a printed value. Where two headings read alike, the source gives them in different places. Values belong to the compound of their own block, whether it stands above or below them.
Legend:
[1] = tested on: patients with primary open-angle glaucoma; settings: Phase 2; cited from earlier work
KATP channels = settings: in the presence of ATP (Brayden et al. 1991); cited from earlier work
[2] = reported by SmithKline Beecham 1993 (Hamilton et al.); cited from earlier work
[3] = Toxicokinetics of levcromakalim in plasma, BID T.O. bilateral formulation 3d for 28 days in rabbits (Example 12, Table 11); format: in vivo, rabbit; settings: for AUC(0-t) / Cmax / Tmax / half-life: DB, rabbit, plasma, topical or ocular; for tlast: in h (unit assumed)
Experimental: Plasma concentrations of levcromakalim were evaluated in DB rabbits after twice a day (BID) oculus uterque (OU, both eyes) topical ophthalmic (T.O.) administration of formulation 3d for 28 days at dose levels of 0, 0.012, 0.03, and 0.06 mg/eye/dose.
Plasma concentrations of levcromakalim were evaluated in DB rabbits after BID OU T.O. administration of three concentrations of formulation 3d at dose levels of 0, 0.012, 0.03, and 0.06 mg/eye/dose (0, 0.024, 0.06, and 0.12 mg/eye/day respectively or 0.030% [1.0 mM], 0.075% [2.5 mM], or 0.15% [5 mM] respectively) for 28 days. Plasma was collected from 3 animals/dose group at pre-dose, 0.5, 1, 2, 3, 4, 6, and 12 hours post-first dose on Days 1 and 28.

[4] = Solubility limit of levcromakalim in water (literature); format: physicochemical; settings: converted from 0.48 mg/ml
Excerpt: Therefore, the Chiang Lin tested material undoubtedly had insoluble material which would have a deleterious effect on the eye and nullify the results. The Hamilton article also stated that cromakalim is soluble in ethanol, DMSO and PEG, none of which would be acceptable as the topical ocular carrier for human administration.

[5] = female, 0.012 mg, females, 0.012 mg/eye/dose BID OU T.O. formulation 3d, Day 1, rabbit plasma
[6] = female, 0.012 mg, females, 0.012 mg/eye/dose BID OU T.O. formulation 3d, Day 28, rabbit plasma
[7] = female, 0.03 mg, females, 0.03 mg/eye/dose BID OU T.O. formulation 3d, Day 1, rabbit plasma
[8] = female, 0.03 mg, females, 0.03 mg/eye/dose BID OU T.O. formulation 3d, Day 28, rabbit plasma
[9] = female, 0.06 mg, females, 0.06 mg/eye/dose BID OU T.O. formulation 3d, Day 1, rabbit plasma
[10] = female, 0.06 mg, females, 0.06 mg/eye/dose BID OU T.O. formulation 3d, Day 28, rabbit plasma
[11] = females, 0.012 mg/eye/dose BID OU T.O. formulation 3d, Day 1, rabbit plasma
[12] = females, 0.012 mg/eye/dose BID OU T.O. formulation 3d, Day 28, rabbit plasma
[13] = females, 0.03 mg/eye/dose BID OU T.O. formulation 3d, Day 1, rabbit plasma
[14] = females, 0.03 mg/eye/dose BID OU T.O. formulation 3d, Day 28, rabbit plasma
[15] = females, 0.06 mg/eye/dose BID OU T.O. formulation 3d, Day 1, rabbit plasma
[16] = females, 0.06 mg/eye/dose BID OU T.O. formulation 3d, Day 28, rabbit plasma
[17] = male, 0.012 mg, males, 0.012 mg/eye/dose BID OU T.O. formulation 3d, Day 1, rabbit plasma
[18] = male, 0.012 mg, males, 0.012 mg/eye/dose BID OU T.O. formulation 3d, Day 28, rabbit plasma
[19] = male, 0.03 mg, males, 0.03 mg/eye/dose BID OU T.O. formulation 3d, Day 1, rabbit plasma
[20] = male, 0.03 mg, males, 0.03 mg/eye/dose BID OU T.O. formulation 3d, Day 28, rabbit plasma
[21] = male, 0.06 mg, males, 0.06 mg/eye/dose BID OU T.O. formulation 3d, Day 1, rabbit plasma
[22] = male, 0.06 mg, males, 0.06 mg/eye/dose BID OU T.O. formulation 3d, Day 28, rabbit plasma
[23] = males, 0.012 mg/eye/dose BID OU T.O. formulation 3d, Day 1, rabbit plasma
[24] = males, 0.012 mg/eye/dose BID OU T.O. formulation 3d, Day 28, rabbit plasma
[25] = males, 0.03 mg/eye/dose BID OU T.O. formulation 3d, Day 1, rabbit plasma
[26] = males, 0.03 mg/eye/dose BID OU T.O. formulation 3d, Day 28, rabbit plasma
[27] = males, 0.06 mg/eye/dose BID OU T.O. formulation 3d, Day 1, rabbit plasma
[28] = males, 0.06 mg/eye/dose BID OU T.O. formulation 3d, Day 28, rabbit plasma

Compound: CC1(C)Oc2ccc(C#N)cc2[C@@H](N2CCCC2=O)[C@@H]1OP(=O)(O)O [QLS-101]
- hyperemia (eye redness) [1]: no evidence of hyperemia
- safety and tolerability profile [1]: favorable safety and tolerability profile

Compound: CC1(C)Oc2ccc(C#N)cc2C(N2CCCC2=O)C1O (centres unmarked) [Cromakalim]
- increase of open-state probability (Popen) of single KATP channels (KATP channels): more than 9 fold

- solubility limit in water [4]: 0.048 % w/w
Compound: CC1(C)Oc2ccc(C#N)cc2[C@@H](N2CCCC2=O)[C@@H]1O [levcromakalim]
- solubility limit in water [2]: 480 µg/mL (≈ 1680 µM)
- AUC(0-t) [3, 5]: 0.57 ng·h/mL
- Cmax [3, 5]: 0.64 ng/mL
- Tmax [3, 5]: 1.67 h
- half-life [3, 5]: 1.84 h
- AUC(0-t) [3, 6]: 0.051 ng·h/mL
- Cmax [3, 6]: 0.56 ng/mL
- Tmax [3, 6]: 0.33 h
- AUC(0-t) [3, 7]: 3.99 ng·h/mL
- Cmax [3, 7]: 1.75 ng/mL
- Tmax [3, 7]: 0.67 h
- half-life [3, 7]: 1.7 h
- AUC(0-t) [3, 8]: 3.58 ng·h/mL
- Cmax [3, 8]: 1.76 ng/mL
- Tmax [3, 8]: 0.67 h
- half-life [3, 8]: 2.19 h
- AUC(0-t) [3, 9]: 8.89 ng·h/mL
- Cmax [3, 9]: 2.85 ng/mL
- Tmax [3, 9]: 1 h
- half-life [3, 9]: 1.77 h
- Cmax [3, 10]: 2.06 ng/mL
- Tmax [3, 10]: 1.2 h
- half-life [3, 10]: 1.97 h
- AUCtlast/Dose [3, 11]: 23.74 ng·h/mL/mg
- Cmax/Dose [3, 11]: 26.67 ng/mL/mg
- tlast [3, 11]: 2.00
- AUCtlast/Dose [3, 12]: 21.11 ng·h/mL/mg
- Cmax/Dose [3, 12]: 23.21 ng/mL/mg
- tlast [3, 12]: 2.25
- AUCtlast/Dose [3, 13]: 66.44 ng·h/mL/mg
- Cmax/Dose [3, 13]: 29.22 ng/mL/mg
- tlast [3, 13]: 3.67
- AUCtlast/Dose [3, 14]: 59.64 ng·h/mL/mg
- Cmax/Dose [3, 14]: 29.41 ng/mL/mg
- tlast [3, 14]: 3.33
- AUCtlast/Dose [3, 15]: 74.06 ng·h/mL/mg
- Cmax/Dose [3, 15]: 23.73 ng/mL/mg
- tlast [3, 15]: 4.80
- AUCtlast [3, 16]: 6.05 ng·h/mL
- AUCtlast/Dose [3, 16]: 50.39 ng·h/mL/mg
- Cmax/Dose [3, 16]: 17.13 ng/mL/mg
- tlast [3, 16]: 4.80
- AUC(0-t) [3, 17]: 0.94 ng·h/mL
- Cmax [3, 17]: 0.77 ng/mL
- Tmax [3, 17]: 1.17 h
- AUC(0-t) [3, 18]: 0.14 ng·h/mL
- Cmax [3, 18]: 0.37 ng/mL
- Tmax [3, 18]: 0.33 h
- AUC(0-t) [3, 19]: 3.96 ng·h/mL
- Cmax [3, 19]: 2.26 ng/mL
- Tmax [3, 19]: 0.67 h
- half-life [3, 19]: 1.28 h
- AUC(0-t) [3, 20]: 2.53 ng·h/mL
- Cmax [3, 20]: 1.68 ng/mL
- Tmax [3, 20]: 0.5 h
- half-life [3, 20]: 2.88 h
- AUC(0-t) [3, 21]: 5.64 ng·h/mL
- Cmax [3, 21]: 2.61 ng/mL
- Tmax [3, 21]: 0.7 h
- half-life [3, 21]: 1.72 h
- Cmax [3, 22]: 2.58 ng/mL
- Tmax [3, 22]: 0.6 h
- half-life [3, 22]: 2.29 h
- AUCtlast/Dose [3, 23]: 39.23 ng·h/mL/mg
- Cmax/Dose [3, 23]: 32.12 ng/mL/mg
- tlast [3, 23]: 1.50
- AUCtlast/Dose [3, 24]: 5.78 ng·h/mL/mg
- Cmax/Dose [3, 24]: 15.40 ng/mL/mg
- tlast [3, 24]: 0.500
- AUCtlast/Dose [3, 25]: 66.06 ng·h/mL/mg
- Cmax/Dose [3, 25]: 28.88 ng/mL/mg
- tlast [3, 25]: 3.00
- AUCtlast/Dose [3, 26]: 42.11 ng·h/mL/mg
- Cmax/Dose [3, 26]: 28.05 ng/mL/mg
- tlast [3, 26]: 2.33
- AUCtlast/Dose [3, 27]: 47.04 ng·h/mL/mg
- Cmax/Dose [3, 27]: 21.78 ng/mL/mg
- tlast [3, 27]: 3.60
- AUCtlast [3, 28]: 6.11 ng·h/mL
- AUCtlast/Dose [3, 28]: 50.96 ng·h/mL/mg
- Cmax/Dose [3, 28]: 21.48 ng/mL/mg
- tlast [3, 28]: 4.20
